Experimental data taken from patent US11872221B2, “Treating untreated or treatment-resistant diabetes with glucokinase activator” (HUA Medicine (Shanghai) Ltd., priority 2020, dated 2024).
Like-named read-outs stand apart in the source and are kept apart here.

Columns and labels:
Format in all cases: in vivo, human
C-peptide = assay: Oral glucose tolerance test, C-peptide response (serum); details: for C-peptide CEmax, Mean (SD): baseline corrected, OGTT 75 g glucose 30 min after dose, T2DM subjects, sitagliptin 100 mg QD, dorzagliatin 75 mg BID; for C-peptide AUEC0-4h, GMR (%) / C-peptide CEav, GMR (%) / C-peptide CEmax, GMR (%): printed in the monotherapy column, apparently combination vs that monotherapy
From the text: (§1) This phase I study accessed the pharmacokinetic interaction between dorzagliatin and sitagliptin in T2DM subjects. This study also evaluated the safety and tolerability of dorzagliatin with simultaneous administration of sitagliptin in T2DM subjects. Moreover, this study accessed the pharmacodynamic responses of glucose, GLP-1, glucagon, insulin, and C-peptide following dorzagliatin, sitagliptin, or simultaneous administration of dorzagliatin and sitagliptin in T2DM subjects.
(§2) Study drugs are each taken 60 (±5) min prior to meals.
(§3) Subjects consumed a 75-gram glucose solution 30 min following study drug dose administration on Days 5, 10 and 15 in lieu of breakfast. Pharmacodynamic (PD) responses were evaluated by measuring GLP-1 and glucagon levels in plasma, and glucose, insulin, and C-peptide in serum within 60 min prior to oral glucose intake and 0.5, 1, 1.5, 2, 2.5, 3 and 4 h after oral glucose intake.

glucose = assay: Oral glucose tolerance test, glucose response (serum); details: for Glucose AUEC0-4h, Mean (SD) / Glucose CEav, Mean (SD) / Glucose CEmax, Mean (SD): baseline corrected, OGTT 75 g glucose 30 min after dose, T2DM subjects, sitagliptin 100 mg QD, dorzagliatin 75 mg BID; for Glucose AUEC0-4h, GMR (%) / Glucose CEav, GMR (%) / Glucose CEmax, GMR (%): printed in the monotherapy column, apparently combination vs that monotherapy
From the text: as §1, §2, §3

[1] = Phase 1 drug-drug interaction study, plasma pharmacokinetics of dorzagliatin and sitagliptin; details: for AUC(0-t) / Cmax: human, plasma, oral, T2DM subjects
From the text: as §1, §2
Blood samples for the determination of dorzagliatin and sitagliptin concentrations and corresponding pharmacokinetic (PK) analysis were collected on Days 5, 10 and 15: pre-dose (within 30 min prior to dosing), and 0.25, 0.5, 1, 1.5, 2, 3, 4, 6, 8, 10, 12, 18, and 24 h post dose.
Dorzagliatin was provided as a film-coated tablets in 75 mg strength for oral administration 60 min prior to a meal. Sitagliptin was provided as JANUVIA® 100 mg tablets for oral administration 60 min prior to a meal. The total duration of participation in the study for each subject was about 59 days (up to 28-day screening period, 12-day run-in period, and 19-day in-clinic period).
The plasma concentration-time data for dorzagliatin and sitagliptin were analyzed using noncompartmental methods to calculate pharmacokinetic parameters.

insulin = assay: Oral glucose tolerance test, insulin response (serum); details: printed in the monotherapy column; apparently combination vs that monotherapy
From the text: as §1, §2, §3

Row | Structure (SMILES) | C-peptide CEmax, Mean (SD) (C-peptide) | C-peptide AUEC0-4h, GMR (%) (C-peptide) | C-peptide CEav, GMR (%) (C-peptide) | C-peptide CEmax, GMR (%) (C-peptide) | Glucose AUEC0-4h, Mean (SD) (glucose) | Glucose CEav, Mean (SD) (glucose) | Glucose CEmax, Mean (SD) (glucose) | Glucose AUEC0-4h, GMR (%) (glucose) | Glucose CEav, GMR (%) (glucose) | Glucose CEmax, GMR (%) (glucose) | Insulin AUEC0-4h, GMR (%) (insulin) | Insulin CEav, GMR (%) (insulin) | Insulin CEmax, GMR (%) (insulin) | further results
1 | CC(C)C[C@@H](C(=O)Nc1ccn(C[C@@H](O)CO)n1)N1CC(Oc2ccccc2Cl)=CC1=O [Dorzagliatin, (S)-2-(4-(2-chlorophenoxy)-2-oxo-2,5-dihydro-1H-pyrrol-1-yl)-N-(1-((R)-2,3-dihydroxypropyl)-1H-pyrazol-3-yl)-4-methylpentanamide] | 4.2 ng/mL | 143% | 143% | 145% | 339 (124) h · mg/dL | 84.8 (31) mg/dL | 163 (39) mg/dL | 69% | 69% | 83% | 159% | 159% | 146% | Percent ratio of geometric means (GMR) of dorzagliatin Cmax ([1]; dorzagliatin in combination with sitagliptin vs dorzagliatin alone, 90% CI: 87, 120): 102%; Percent GMR of dorzagliatin AUC0-24h ([1]; dorzagliatin in combination with sitagliptin vs dorzagliatin alone, 90% CI: 96, 105): 100%; AUC(0-t) ([1]; dorzagliatin 75 mg BID alone (Day 15), read-out: Least squares geometric mean AUC0-24h of plasma dorzagliatin): 6570 ng·h/mL; Cmax ([1]; dorzagliatin 75 mg BID alone (Day 15), read-out: Least squares geometric mean Cmax of plasma dorzagliatin): 814 ng/mL; AUC(0-t) ([1]; dorzagliatin 75 mg BID in combination with sitagliptin 100 mg QD (Day 10), read-out: Least squares geometric mean AUC0-24h of plasma dorzagliatin): 6590 ng·h/mL; Cmax ([1]; dorzagliatin 75 mg BID in combination with sitagliptin 100 mg QD (Day 10), read-out: Least squares geometric mean Cmax of plasma dorzagliatin): 833 ng/mL
2 | N[C@@H](CC(=O)N1CCn2c(nnc2C(F)(F)F)C1)Cc1cc(F)c(F)cc1F [Sitagliptin, (R)-3-amino-1-(3-(trifluoromethyl)-5,6-dihydro-[1,2,4]triazolo[4,3-a]pyrazin-7(8H)-yl)-4-(2,4,5-trifluorophenyl)butan-1-one] | 5.1 ng/mL | 119% | 119% | 125% | 378 (88) h · mg/dL | 94.5 (22) mg/dL | 165 (35) mg/dL | 65% | 65% | 87% | 110% | 110% | 125% | AUC(0-t) ([1]; sitagliptin 100 mg QD alone (Day 5), read-out: Least squares geometric mean AUC0-24h of plasma sitagliptin): 2940 ng·h/mL; Cmax ([1]; sitagliptin 100 mg QD alone (Day 5), read-out: Least squares geometric mean Cmax of plasma sitagliptin): 410 ng/mL; AUC(0-t) ([1]; sitagliptin 100 mg QD in combination with dorzagliatin 75 mg BID (Day 10), read-out: Least squares geometric mean AUC0-24h of plasma sitagliptin): 2720 ng·h/mL; Cmax ([1]; sitagliptin 100 mg QD in combination with dorzagliatin 75 mg BID (Day 10), read-out: Least squares geometric mean Cmax of plasma sitagliptin): 403 ng/mL; Percent GMR of sitagliptin Cmax ([1]; sitagliptin in combination with dorzagliatin vs sitagliptin alone, 90% CI: 84, 115): 98%; Percent GMR of sitagliptin AUC0-24h ([1]; sitagliptin in combination with dorzagliatin vs sitagliptin alone, 90% CI: 86, 100): 93%
